PubChem BioAssay AID2060352 (Molecular Pharmacology Branch, DTP, NCI, 2025)
Where “and” joins values, the source holds several entries; their conditions need not be identical. Equal values may be shown once.

System: 616215-338-R-J1-PDC spheroid with HUVEC/MSC, viability
Experiment: Anticancer human tumor 616215-338-R-J1-PDC patient-derived colon adenocarcinoma cell line growth inhibition [TAK]
Details: for viability, T/C: stronger effect = lower value
In short: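 Drug combinations, each paired with TAK-243 or ipatasertib, were tested on multi-cell spheroids of 60% malignant cells, 25% HUVEC and 15% hMSC. Top concentrations were at or near the clinical Cmax (10 microM if undetermined), decreasing by half-log; viability is given as % test/control.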

[1] = curve of first compound, second compound 0.3 µM
[2] = curve of first compound, second compound 0.949 µM
[3] = curve of first compound, second compound 3 µM
[4] = curve of first compound, second compound 9.49 µM
[5] = curve of first compound, second compound 30 µM
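Note: spheroids exposed to drugs for 7 days before readout.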

CC(C)n1nc(-c2ccc3oc(N)nc3c2)c2c(N)ncnc21
viability, T/C (compound 0.000316 µM): 95.9% and 105%
viability, T/C (compound 0.001 µM): 115% and 107%
viability, T/C (compound 0.00316 µM): 99.9% and 114%
viability, T/C (compound 0.01 µM): 112% and 130%
viability, T/C (compound 0.0316 µM): 127% and 146%
viability, T/C (compound 0.1 µM): 94% and 38%
IC50 (curve of compound): > 100 nM and 84.7 nM

CC(=O)Nc1cccc(-n2c(=O)n(C3CC3)c(=O)c3c(Nc4ccc(I)cc4F)n(C)c(=O)c(C)c32)c1 + CC(C)NCC(C(=O)N1CCN(c2ncnc3c2C(C)CC3O)CC1)c1ccc(Cl)cc1
IC50 [1]: 4.61 nM
IC50 [2]: 1.65 nM
IC50 [3]: 0.213 nM
IC50 [4]: < 0.0949 nM
IC50 [5]: < 0.0949 nM
viability, T/C (second compound 0.3 µM, first compound 94.9 pM): 131%
viability, T/C (second compound 0.3 µM, first compound 0.0003 µM): 132%
viability, T/C (second compound 0.3 µM, first compound 0.000949 µM): 125%
viability, T/C (second compound 0.3 µM, first compound 0.003 µM): 69.9%
viability, T/C (second compound 0.3 µM, first compound 0.00949 µM): 16.6%
viability, T/C (second compound 0.3 µM, first compound 0.03 µM): 3.1%
viability, T/C (second compound 0.949 µM, first compound 94.9 pM): 134%
viability, T/C (second compound 0.949 µM, first compound 0.0003 µM): 130%
viability, T/C (second compound 0.949 µM, first compound 0.000949 µM): 69.7%
viability, T/C (second compound 0.949 µM, first compound 0.003 µM): 28.1%
viability, T/C (second compound 0.949 µM, first compound 0.00949 µM): 9.36%
viability, T/C (second compound 0.949 µM, first compound 0.03 µM): 1.03%
viability, T/C (second compound 3 µM, first compound 94.9 pM): 57.9%
viability, T/C (second compound 3 µM, first compound 0.0003 µM): 47.6%
viability, T/C (second compound 3 µM, first compound 0.000949 µM): 25.3%
viability, T/C (second compound 3 µM, first compound 0.003 µM): 11.9%
viability, T/C (second compound 3 µM, first compound 0.00949 µM): 4.2%
viability, T/C (second compound 3 µM, first compound 0.03 µM): 0.83%
viability, T/C (second compound 9.49 µM, first compound 94.9 pM): 22%
viability, T/C (second compound 9.49 µM, first compound 0.0003 µM): 18.4%
viability, T/C (second compound 9.49 µM, first compound 0.000949 µM): 12.3%
viability, T/C (second compound 9.49 µM, first compound 0.003 µM): 6.63%
viability, T/C (second compound 9.49 µM, first compound 0.00949 µM): 2.23%
viability, T/C (second compound 9.49 µM, first compound 0.03 µM): 1.12%
viability, T/C (second compound 30 µM, first compound 94.9 pM): 10.7%
viability, T/C (second compound 30 µM, first compound 0.0003 µM): 9.94%
viability, T/C (second compound 30 µM, first compound 0.000949 µM): 6.33%
viability, T/C (second compound 30 µM, first compound 0.003 µM): 3.43%
viability, T/C (second compound 30 µM, first compound 0.00949 µM): 1.53%
viability, T/C (second compound 30 µM, first compound 0.03 µM): 1.15%

COc1c(OCCCN2CCOCC2)ccc2c3n(c(=NC(=O)c4cnc(N)nc4)nc12)CCN3
viability, T/C (compound 0.00316 µM): 108% and 106%
viability, T/C (compound 0.01 µM): 108% and 113%
viability, T/C (compound 0.0316 µM): 117% and 114%
viability, T/C (compound 0.1 µM): 57.7% and 54.2%
viability, T/C (compound 0.316 µM): 27.8% and 31.5%
viability, T/C (compound 1 µM): 17.4% and 16.5%
IC50 (curve of compound): 129 nM and 118 nM

COC1CC2CCC(C)C(O)(O2)C(=O)C(=O)N2CCCCC2C(=O)OC(C(C)CC2CCC(OCCO)C(OC)C2)CC(=O)C(C)C=C(C)C(O)C(OC)C(=O)C(C)CC(C)C=CC=CC=C1C (configuration not stated)
viability, T/C (compound 0.000316 µM): 98.5% and 109%
viability, T/C (compound 0.001 µM): 93.9% and 116%
viability, T/C (compound 0.00316 µM): 96.7% and 111%
viability, T/C (compound 0.01 µM): 107% and 112%
viability, T/C (compound 0.0316 µM): 110% and 117%
viability, T/C (compound 0.1 µM): 110% and 83%
IC50 (curve of compound): > 100 nM

CC(C)CC(NC(=O)C(Cc1ccccc1)NC(=O)c1cnccn1)B(O)O (configuration not stated)
viability, T/C (compound 31.6 pM): 98.1% and 102%
viability, T/C (compound 0.0001 µM): 115% and 110%
viability, T/C (compound 0.000316 µM): 101% and 108%
viability, T/C (compound 0.001 µM): 92.3% and 103%
viability, T/C (compound 0.00316 µM): 107% and 102%
IC50 (curve of compound): > 10 nM and 5.79 nM

Cc1nc(NC(=O)N2CCCC2C(N)=O)sc1-c1ccnc(C(C)(C)C(F)(F)F)c1 (configuration not stated) + CC(C)NCC(C(=O)N1CCN(c2ncnc3c2C(C)CC3O)CC1)c1ccc(Cl)cc1
IC50 [1]: > 10000 nM
IC50 [2]: > 10000 nM
IC50 [3]: 2760 nM
IC50 [4]: < 31.6 nM
IC50 [5]: < 31.6 nM
viability, T/C (second compound 0.3 µM, first compound 0.0316 µM): 101%
viability, T/C (second compound 0.3 µM, first compound 0.1 µM): 113%
viability, T/C (second compound 0.3 µM, first compound 0.316 µM): 127%
viability, T/C (second compound 0.3 µM, first compound 1 µM): 112%
viability, T/C (second compound 0.3 µM, first compound 3.16 µM): 119%
viability, T/C (second compound 0.3 µM, first compound 10 µM): 83.3%
viability, T/C (second compound 0.949 µM, first compound 0.0316 µM): 120%
viability, T/C (second compound 0.949 µM, first compound 0.1 µM): 119%
viability, T/C (second compound 0.949 µM, first compound 0.316 µM): 128%
viability, T/C (second compound 0.949 µM, first compound 1 µM): 119%
viability, T/C (second compound 0.949 µM, first compound 3.16 µM): 110%
viability, T/C (second compound 0.949 µM, first compound 10 µM): 51.3%
viability, T/C (second compound 3 µM, first compound 0.0316 µM): 94.9%
viability, T/C (second compound 3 µM, first compound 0.1 µM): 91%
viability, T/C (second compound 3 µM, first compound 0.316 µM): 80%
viability, T/C (second compound 3 µM, first compound 1 µM): 52.2%
viability, T/C (second compound 3 µM, first compound 3.16 µM): 59.3%
viability, T/C (second compound 3 µM, first compound 10 µM): 37.8%
viability, T/C (second compound 9.49 µM, first compound 0.0316 µM): 28%
viability, T/C (second compound 9.49 µM, first compound 0.1 µM): 27.4%
viability, T/C (second compound 9.49 µM, first compound 0.316 µM): 25.1%
viability, T/C (second compound 9.49 µM, first compound 1 µM): 24.9%
viability, T/C (second compound 9.49 µM, first compound 3.16 µM): 21.5%
viability, T/C (second compound 9.49 µM, first compound 10 µM): 16.1%
viability, T/C (second compound 30 µM, first compound 0.0316 µM): 14.2%
viability, T/C (second compound 30 µM, first compound 0.1 µM): 14.4%
viability, T/C (second compound 30 µM, first compound 0.316 µM): 11.4%
viability, T/C (second compound 30 µM, first compound 1 µM): 11.3%
viability, T/C (second compound 30 µM, first compound 3.16 µM): 10%
viability, T/C (second compound 30 µM, first compound 10 µM): 6.48%
